Test results from patent publication US9079876B2, “Imidazole derivatives and preparation method and use thereof” (Beijing Orbiepharm Co., Ltd., priority 2010, dated 2015).

Key:
COX-1 = target: T1, COX-1 (Canis lupus familiaris, UniProt Q8HZR1); assay: Dog whole blood in vitro activity assay, COX-1; type: cell-based, beagle dog; conditions: read-out: IC50 (μg/mL) COX-1 (converted)
T1 construct: in vitro activity study using beagle dog whole blood was conducted; from tissue; host or cells: beagle dog whole blood (platelets, by the same method as for human blood)
T1 sequence (Q8HZR1 28-603): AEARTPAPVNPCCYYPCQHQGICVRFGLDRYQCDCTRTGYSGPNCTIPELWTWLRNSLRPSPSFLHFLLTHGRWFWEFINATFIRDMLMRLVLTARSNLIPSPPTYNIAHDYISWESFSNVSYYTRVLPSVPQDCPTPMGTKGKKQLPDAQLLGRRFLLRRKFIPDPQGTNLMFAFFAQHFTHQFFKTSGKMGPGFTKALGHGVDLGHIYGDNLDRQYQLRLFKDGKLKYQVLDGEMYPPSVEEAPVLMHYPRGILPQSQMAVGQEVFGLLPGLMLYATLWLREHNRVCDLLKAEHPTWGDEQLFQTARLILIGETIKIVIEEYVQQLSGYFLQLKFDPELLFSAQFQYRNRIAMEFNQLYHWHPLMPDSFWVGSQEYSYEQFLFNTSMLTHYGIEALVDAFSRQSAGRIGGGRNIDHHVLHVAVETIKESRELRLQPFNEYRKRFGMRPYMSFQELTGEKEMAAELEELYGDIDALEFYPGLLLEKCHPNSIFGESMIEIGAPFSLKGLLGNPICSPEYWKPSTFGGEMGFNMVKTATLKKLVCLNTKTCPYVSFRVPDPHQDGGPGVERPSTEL

[1] = system: mice forced swimming immobility time; assay: Forced swimming test in mice (anti-depression model); type: in vivo, Male Kunming mice
Method: In Vivo Study: The Forced Swimming Test in Mice (Evaluation on Anti-Depression Model)
Male Kunming mice, approximately 20 g, were randomized into six groups, i.e. normal group, positive drug group (fluoxetine 20 mg/kg), group A (5 mg/kg Compound 1), group B (10 mg/kg Compound 1), group C (20 mg/kg Compound 1), and group D (40 mg/kg Compound 1).
Single Dose Test: Mice were normally fed for 1 day and allowed to adapt to the environment. Then the mice were fasted (except water) for 16 hours, and were intragastrically administrated with a single dose of the test drug, and the normal group was intragastrically administrated with an equivalent amount of distilled water. 40 min after administration, the mice were placed in forced swimming test device (swimming environment: pool diameter 12.5 cm cylinder, water temperature 25° C. and water depth 10 cm). Mice swam for six minutes, and the immobility time (i.e., the time during which the limbs were immobile, or only the feet were thrashing or paddling) was recorded with an animal behavioral record system, for the latter 4 min within the 6 min recording period, and was used for statistical analysis.
(§1) Study with Three-Day Consecutive Dosing: Mice were normally fed for 1 day and allowed to adapt to the environment. Then the mice were intragastrically administrated with the test drug consecutively for three days (once per day). The normal group was intragastrically administrated equivalent amount of distilled water. Mice were fasted (except water) for 16 hours before the last dosing. 40 min after the last dosing, the mice were placed in forced swimming test device (swimming environment: pool diameter 12.5 cm cylinder, water temperature 25° C. and water depth 10 cm). Mice swam for six minutes, and the immobility time (i.e., the time during which the limbs were immobile, or only the feet were thrashing or paddling) was recorded with an animal behavioral record system, for the latter 4 min within the 6 min recording period, and was used for statistical analysis.
as §1, with “Seven-Day” for “Three-Day”, “seven” for “three”

[2] = Pharmacokinetic study, intravenous, rats; type: in vivo; conditions: male SD rats, IV 2 mg/kg
Method: Cimicoxib (cimicoxib) was IV administrated to male SD rats in vivo [2 mg/kg, 2 mg/ml, menstruum: DMSO/PEG 400/30% HP-b-CD ([…])], T1/2 was 3.20 h. The half-life of compound 1 was longer than cimicoxib.

CS(=O)(=O)c1ccc(-n2cnc(Cl)c2-c2ccccc2)nc1 [Compound 1, 2-(4-chloro-5-phenyl-1H-imidazol-1-yl)-5-(methylsulfonyl)pyridine]
IC50 (COX-1): 219 µM | forced swimming Immobility time ([1]; 3 days consecutive administration, 5 mg/kg intragastric, 5 mg/kg): tendency of reduction in forced swimming immobility time | forced swimming Immobility time ([1]; 3 days consecutive administration, 5 mg/kg intragastric, 5 mg/kg, in s (unit assumed)): 119.73 ± 24.55 | forced swimming Immobility time ([1]; 3 days consecutive administration, 10 mg/kg intragastric, in s (unit assumed)): 91.73 ± 22.08 | forced swimming Immobility time ([1]; 3 days consecutive administration, 20 mg/kg intragastric, in s (unit assumed)): 83.12 ± 32.57 | forced swimming Immobility time ([1]; 3 days consecutive administration, 40 mg/kg intragastric, in s (unit assumed)): 63.32 ± 30.46 | forced swimming Immobility time ([1]; 7 days consecutive administration, 5 mg/kg intragastric, 5 mg/kg): tendency of reduction in forced swimming immobility time | forced swimming Immobility time ([1]; 7 days consecutive administration, 5 mg/kg intragastric, 5 mg/kg, in s (unit assumed)): 102.72 ± 34.07 | forced swimming Immobility time ([1]; 7 days consecutive administration, 10 mg/kg intragastric, in s (unit assumed)): 86.40 ± 34.65 | forced swimming Immobility time ([1]; 7 days consecutive administration, 20 mg/kg intragastric, in s (unit assumed)): 86.84 ± 30.21 | forced swimming Immobility time ([1]; 7 days consecutive administration, 40 mg/kg intragastric, in s (unit assumed)): 83.84 ± 35.50 | forced swimming Immobility time ([1]; single dose, 5 mg/kg intragastric, 40 min after administration, 5 mg/kg): tendency of reduction in forced swimming immobility time | forced swimming Immobility time ([1]; single dose, 5 mg/kg intragastric, 40 min after administration, 5 mg/kg, in s (unit assumed)): 102.24 ± 27.33 | forced swimming Immobility time ([1]; single dose, 10 mg/kg intragastric, 40 min after administration, in s (unit assumed)): 92.85 ± 38.81 | forced swimming Immobility time ([1]; single dose, 20 mg/kg intragastric, 40 min after administration, in s (unit assumed)): 87.55 ± 42.50 | forced swimming Immobility time ([1]; single dose, 40 mg/kg intragastric, 40 min after administration, in s (unit assumed)): 90.86 ± 39.53 | t1/2 [2]: 5.37 ± 0.51 h | AUC(0-t) ([2]; rat, in vivo): 11400 ± 949 ng·h/mL | C0 ([2]; rat, in vivo): 1700 ± 259 ng/mL | clearance ([2]; rat, in vivo): 2.83 ± 0.27 mL/min/kg | half-life ([2]; rat, in vivo, 2 mg/ml, DMSO/PEG 400/30% HP-b-CD): 5.37 h | Vd ([2]; rat, in vivo, read-out: Vss): 1.16 ± 0.02 L/kg
